In US20050069541A1, “Composition for and treatment of demyelinating diseases and paralysis by administration of remyelinating agents” (priority 2003, published 2005):

Experiments:
[1] = test system: guinea pig model of CP-EAE; experiment: Remyelination and motor function in guinea pig CP-EAE; type: in vivo
Excerpt: The number of lesions showing myelin pallor was divided by the total number of lesions within cross sections of spinal cord taken throughout its length from each animal (FIG. 10) (for the method see Warrington et al., 2000, Proc. Nat'l Acad. Sci. USA 97: 6820-5). […] In contrast, after 20 days of N-[N-(3-pyridinesulfonyl)-L-3,3-dimethyl-4-thiaprolyl]-O-[1-methylpiperazin-4-ylcarbonyl]-L-tyrosine isopropyl ester administration, the frequency of shadow plaques in the spinal cord was increased over saline-treated animals, reaching 68%; after 30 and 40 days, the incidence was 77% and 87%, respectively (p<0.001, 2-way ANOVA with Tukey test).
The overall degree of plaque remyelination in the spinal cord was also measured. […] Total lesion area was determined for each animal by tracing all lesions within all spinal cord sections and summing the areas. Likewise, the total area of remyelination was measured by tracing regions of myelin pallor. FIGS. 10C-F plot the total lesion area against the percentage of remyelination. In saline-treated animals, lesions rarely show any evidence of repair, with means ranging between 2 and 11%, and there were no significant differences over the 40-day treatment period (FIGS. 10C-F). In contrast, after 20, 30 or 40 days of N-[N-(3-pyridinesulfonyl)-L-3,3-dimethyl-4-thiaprolyl]-O-[1-methylpiperazin-4-ylcarbonyl]-L-tyrosine isopropyl ester treatment, the majority of lesions identified show a variable degree of remyelination ranged from 2 to 100% in the majority of lesions (mean area of remyelination approximately 50%) (FIGS. 10D-5). (p<0.001, 2-way ANOVA with Tukey test). Therefore while lesions were evident in all animals throughout the 40-day treatment period, N-[N-(3-pyridinesulfonyl)-L-3,3-dimethyl-4-thiaprolyl]-O-[1-methylpiperazin-4-ylcarbonyl]-L-tyrosine isopropyl ester increased the incidence and percentage of remyelination. Furthermore, evidence of remyelination in N-[N-(3-pyridinesulfonyl)-L-3,3-dimethyl-4-thiaprolyl]-O-[1-methylpiperazin-4-ylcarbonyl]-L-tyrosine isopropyl ester-treated animals is consistent with an observed regain of motor function. The starting point for treatment was a clinical score of 2, which denotes full bilateral hind limb paralysis. […] Functional recovery was never observed in control animals.

[2] = test system: EAE in female Hartley guinea pigs
[3] = test system: α4 integrin on circulating lymphocytes and monocytes; experiment: Chronic EAE: FACS analysis of α4 integrin on circulating cells, day 80; type: in vivo, guinea pig
Description: FACS Analysis. On day 80 post-immunization, heparinized blood samples were collected from non-EAE animals, saline-treated animals, N-[N-(3-pyridinesulfonyl)-L-3,3-dimethyl-4-thiaprolyl]-O-[1-methylpiperazin-4-ylcarbonyl]-L-tyrosine isopropyl ester-treated animals and animals 10 days following withdrawal of N-[N-(3-pyridinesulfonyl)-L-3,3-dimethyl-4-thiaprolyl]-O-[1-methylpiperazin-4-ylcarbonyl]-L-tyrosine isopropyl ester. All samples were maintained at 4° C. for all procedures. 150 μl samples were exposed to primary antibody for 30 minutes, washed twice, and then incubated with PE-conjugated goat anti-mouse IgG Fc in the presence of 5% guinea pig serum (Beckman Coulter #PN EM055 1). Red blood cells were lysed with Becton-Dickinson lysing solution and the samples were examined on a FACScan flow cytometer (Becton Dickinson, Mountain View, Calif.) gating on different cell populations by light scatter.

[4] = test system: brain and spinal cord of EAE guinea pigs; experiment: Chronic EAE: histology and blinded pathological scoring of brain and spinal cord sections (H-E, SCR); type: in vivo, guinea pig
Description: Animal Sacrifice and Histological Analysis. Untreated, chronic EAE animals (n=5) were sacrificed on day 40, as well as non-EAE controls (n=5). Following each 10-day treatment interval, 5 animals from each group were sacrificed (0.25 mL sodium pentobarbital), blood samples were collected for FACS analysis (see below), and the brain and spinal cord dissected and sectioned. Three spinal sections were used, corresponding to lumbar, thoracic and cervical regions of the cord. The brain was cut into five transverse sections. The first three proximal sections were combined in one block, and the last two distal sections in another. Tissues were fixed in 10% formalin and embedded in paraffin. […] sections were stained with hematoxylin-eosin (H-E) or solochrome-R-cyanlin (SCR) and evaluated by a blinded observer in each of four categories: (1) meningeal inflammation, (2) perivascular infiltration, (3) encephalitis or (4) myelitis and demyelination (Table 6). The combined pathological score represents the total score (out of a potential 20) from all 5 CNS sections in each animal.

[5] = test system: infiltrating cells in spinal cord; experiment: Chronic EAE: mean cell counts in spinal cord (H-E sections, 0.12 mm^2 fields); type: in vivo, guinea pig; conditions: for Mean # Cells/0.12 mm^2: spinal cord
Description: To quantify the abnormalities observed in the spinal cord, sections stained with H-E were divided into 12 representative pie-shaped areas. In each area, the number of cells within a 0.12 mm^2 field of view was counted using Sigma Scan Pro image analysis software (SPSS Inc.), and the combined mean number of cells in all 12 areas was calculated for the whole spinal cord (36 fields of view per animal). Note that as all cell nuclei were counted, the number of cells may include neurons and glial cells in addition to infiltrates.

[6] = test system: spinal cord lesions of paralyzed EAE guinea pigs; experiment: Example 2: spontaneous remyelination in chronic EAE (SCR, toluidine blue, EM, lesion area analysis, motor function); type: in vivo, guinea pig
[7] = test system: guinea pig model of CP-EAE; conditions: with increasing duration of treatment; Piraino et al., 2002; cited from earlier work
α4 integrin = α4 integrin (Homo sapiens, UniProt P05556+P13612); experiment: Inhibition of cell adhesion to VCAM; type: cell-based, human and guinea pig; conditions: human and guinea pig integrin; read-out: IC50 for inhibition of cell adhesion to VCAM
Chain of α4 integrin (P13612 34-1032): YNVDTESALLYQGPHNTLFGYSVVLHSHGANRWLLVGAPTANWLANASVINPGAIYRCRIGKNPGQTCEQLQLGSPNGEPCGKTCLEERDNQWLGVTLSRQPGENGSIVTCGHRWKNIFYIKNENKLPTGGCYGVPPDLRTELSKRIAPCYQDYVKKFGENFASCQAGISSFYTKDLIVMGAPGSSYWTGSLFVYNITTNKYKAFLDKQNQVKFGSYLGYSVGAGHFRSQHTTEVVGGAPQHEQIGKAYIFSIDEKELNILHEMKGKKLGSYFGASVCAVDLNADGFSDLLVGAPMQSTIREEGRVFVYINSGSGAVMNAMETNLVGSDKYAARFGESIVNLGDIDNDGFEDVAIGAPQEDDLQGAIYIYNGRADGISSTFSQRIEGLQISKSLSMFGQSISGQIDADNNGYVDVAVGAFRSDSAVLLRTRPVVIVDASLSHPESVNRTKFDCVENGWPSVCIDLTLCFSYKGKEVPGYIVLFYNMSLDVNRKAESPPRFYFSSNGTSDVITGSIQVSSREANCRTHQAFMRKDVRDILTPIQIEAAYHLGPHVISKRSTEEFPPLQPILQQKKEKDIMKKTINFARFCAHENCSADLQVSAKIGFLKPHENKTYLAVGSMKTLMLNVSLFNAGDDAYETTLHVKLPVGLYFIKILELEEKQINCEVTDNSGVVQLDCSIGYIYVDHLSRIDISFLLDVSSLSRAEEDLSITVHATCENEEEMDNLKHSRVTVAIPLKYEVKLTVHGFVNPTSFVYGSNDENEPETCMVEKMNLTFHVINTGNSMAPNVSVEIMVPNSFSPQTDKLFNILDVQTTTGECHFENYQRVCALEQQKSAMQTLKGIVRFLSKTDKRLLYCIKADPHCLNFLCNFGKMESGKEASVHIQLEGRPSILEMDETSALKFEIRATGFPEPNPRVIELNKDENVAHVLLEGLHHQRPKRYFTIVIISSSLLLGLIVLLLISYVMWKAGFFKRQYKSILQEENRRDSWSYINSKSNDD
Chain of α4 integrin (P05556 21-798): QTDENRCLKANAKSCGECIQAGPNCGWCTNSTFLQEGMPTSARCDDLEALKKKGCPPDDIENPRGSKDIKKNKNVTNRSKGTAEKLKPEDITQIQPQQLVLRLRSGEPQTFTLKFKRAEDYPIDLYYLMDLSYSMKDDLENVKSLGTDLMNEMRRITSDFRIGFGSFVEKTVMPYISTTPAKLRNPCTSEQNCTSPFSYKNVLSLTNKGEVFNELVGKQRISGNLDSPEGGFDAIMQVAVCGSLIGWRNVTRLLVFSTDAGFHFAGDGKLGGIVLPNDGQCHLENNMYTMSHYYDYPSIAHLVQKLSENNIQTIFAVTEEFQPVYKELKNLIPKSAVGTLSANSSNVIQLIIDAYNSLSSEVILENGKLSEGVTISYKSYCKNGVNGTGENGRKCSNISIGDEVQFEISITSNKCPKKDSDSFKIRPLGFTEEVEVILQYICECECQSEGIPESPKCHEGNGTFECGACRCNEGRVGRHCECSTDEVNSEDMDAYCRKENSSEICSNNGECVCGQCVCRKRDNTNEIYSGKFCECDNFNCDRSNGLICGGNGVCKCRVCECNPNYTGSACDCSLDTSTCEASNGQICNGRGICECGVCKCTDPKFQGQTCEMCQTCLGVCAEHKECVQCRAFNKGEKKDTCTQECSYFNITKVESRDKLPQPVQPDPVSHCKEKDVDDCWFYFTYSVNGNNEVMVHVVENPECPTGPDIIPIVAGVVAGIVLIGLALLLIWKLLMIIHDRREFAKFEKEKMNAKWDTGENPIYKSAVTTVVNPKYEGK

CC(C)OC(=O)[C@H](Cc1ccc(OC(=O)N2CCN(C)CC2)cc1)NC(=O)[C@H]1N(S(=O)(=O)c2cccnc2)CSC1(C)C [N-[N-(3-pyridinesulfonyl)-L-3,3-dimethyl-4-thiaprolyl]-O-[1-methylpiperazin-4-ylcarbonyl]-L-tyrosine isopropyl ester]
mean area of remyelination ([1]; after 20, 30 or 40 days of treatment): approximately 50%
percentage of plaques exhibiting evidence of remyelination (frequency of shadow plaques in the spinal cord) ([1]; after 20 days of administration): 68%
percentage of plaques exhibiting evidence of remyelination (incidence) ([1]; after 30 days): 77%
percentage of plaques exhibiting evidence of remyelination (incidence) ([1]; after 40 days): 87%
treated animals in which paralysis was reversed to a clinical score of 1 ([1]; treatment started at clinical score of 2): 50%
start of clinical reversal following the initial treatment ([2]; 30 mg/kg 2x/day s.c.): 2 to 3 days
mean clinical score over the treatment period versus saline ([2]; 30 mg/kg 2x/day s.c. from day 40 for 10-40 days, p<0.001 Mann Whitney): significantly lower
mean clinical score day 70-80 after withdrawal (30 days treatment, 10 days off) versus continuous treatment ([2]; n=5, p<0.05 Mann Whitney): significantly greater
clinical score reached during treatment in animals with an established clinical score of 2 ([2]; several animals, paresis reversed): 1
escape from treatment ([2]; up to 40 days of treatment): None of the animals, however, escaped from treatment
percentage of α4 integrin bright lymphocytes in the circulation after removal of compound ([3]; 10 days after withdrawal): returned to saline-treated levels
increase of α4 integrin expression on circulating monocytes in EAE ([3]; day 80): not affected
α4 integrin bright lymphocytes in the circulation versus saline ([3]; day 80 post immunization): large increase
mean pathological score in each of four categories versus saline ([4]; meningeal inflammation, perivascular infiltration, encephalitis/myelitis, demyelination, p<0.001 two-way ANOVA): significant decrease
mean combined pathological score after withdrawal for 10 days versus continued treatment ([4]; p<0.05 Kruskal Wallis): significantly higher
spinal cord histology after 20 days of treatment (day 60) ([4]; versus saline): much smaller areas of demyelination
spinal cord histology after 40 days of treatment (day 80) ([4]; versus saline): almost no meningeal and perivascular infiltration
cell number in spinal cord versus saline-treated animals ([5]; after 10, 20, 30 or 40 days, p<0.001 two-way ANOVA): significant reduction
mean cell counts versus chronic (d40) control EAE animals ([5]; after 20, 30 or 40 days, p<0.05): significantly lower
mean cell count in spinal cord versus non-EAE animals ([5]; after 40 days of treatment): not different
mean cell count after removal of compound for 10 days versus continuous treatment ([5]; p<0.05): significant increase
rate of cell loss from spinal cord ([5]; slope of linear regression of mean cell counts, r^2=0.90): 8 cells/mm^2/day
Mean # Cells/0.12 mm^2 ([5]; D50 (10 days of treatment)): 97 ± 3.9 cells/0.12 mm^2
Mean # Cells/0.12 mm^2 ([5]; D60 (20 days of treatment)): 86 ± 4.2 cells/0.12 mm^2
Mean # Cells/0.12 mm^2 ([5]; D70 (30 days of treatment)): 89 ± 8 cells/0.12 mm^2
Mean # Cells/0.12 mm^2 ([5]; D80 (40 days of treatment)): 70 ± 4 cells/0.12 mm^2
myelin repair, share of the total lesion area ([6]; 30 mg/kg twice daily s.c.): 50%
SCR-stained spinal cord after 10 days of treatment ([6]; 10 days): minimal evidence of myelin pallor
SCR-stained spinal cord lesions after 20 days of treatment ([6]; 20 days): many lesions exhibited diffuse pale blue staining
SCR-stained spinal cord lesions after 40 days of treatment ([6]; 40 days): presented as shadow plaques
plaques showing evidence of remyelination ([6]; after 40 days of treatment, 30 mg/kg twice daily s.c.): 87%
semithin and EM sections of lesions ([6]; day 30 of treatment): multiple thin myelin layers around large caliber axons
animals that regained motor function ([6]; paralyzed guinea pigs, clinical score 2 at start): 50%
immune cell infiltrates and associated inflammatory mediators [7]: progressively reduce immune cell infiltrates
IC50 (α4 integrin): 1 nM
